Results reported in ChEMBL document CHEMBL2074574, “The interaction and transport of beta-lactam antibiotics with the cloned rat renal organic anion transporter 1” (J Pharmacol Exp Ther, 1999).
pKi: −log10 of the molar value.

Key:
[1] = biological target: T1, Solute carrier family 22 member 6 (Rattus norvegicus, UniProt O35956); assay: TP_TRANSPORTER: inhibition of PAH uptake (PAH: 2 uM, Amoxicillin: 2000 uM) in Xenopus laevis oocytes; type: functional, cell-based; conditions: oocyte
T1 sequence (O35956 whole entry): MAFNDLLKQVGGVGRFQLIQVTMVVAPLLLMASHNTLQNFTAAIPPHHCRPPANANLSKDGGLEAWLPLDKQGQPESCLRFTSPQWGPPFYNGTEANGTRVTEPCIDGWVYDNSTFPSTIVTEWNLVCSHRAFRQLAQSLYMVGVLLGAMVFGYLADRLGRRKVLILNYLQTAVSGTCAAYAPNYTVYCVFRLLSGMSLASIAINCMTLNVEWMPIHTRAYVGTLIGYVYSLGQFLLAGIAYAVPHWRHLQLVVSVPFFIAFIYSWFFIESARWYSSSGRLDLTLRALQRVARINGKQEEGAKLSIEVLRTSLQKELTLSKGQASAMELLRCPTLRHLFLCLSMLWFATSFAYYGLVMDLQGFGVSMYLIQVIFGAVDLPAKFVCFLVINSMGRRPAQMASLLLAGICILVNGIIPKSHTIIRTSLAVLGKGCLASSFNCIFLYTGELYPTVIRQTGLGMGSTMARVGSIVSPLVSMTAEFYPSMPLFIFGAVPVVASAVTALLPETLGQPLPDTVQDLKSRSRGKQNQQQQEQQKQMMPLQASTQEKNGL

[2] = biological target: T1, Solute carrier family 22 member 6; assay: TP_TRANSPORTER: inhibition of PAH uptake (PAH: 2 uM, Cefsulodin: 2000 uM) in Xenopus laevis oocytes; type: functional, cell-based; conditions: oocyte
[3] = biological target: T1, Solute carrier family 22 member 6; assay: TP_TRANSPORTER: inhibition of PAH uptake (PAH: 2 uM, Ceftazidime: 2000 uM) in Xenopus laevis oocytes; type: functional, cell-based; conditions: oocyte
[4] = biological target: T1, Solute carrier family 22 member 6; assay: TP_TRANSPORTER: inhibition of PAH uptake in Xenopus laevis oocytes; type: functional, cell-based, Oocyte
[5] = biological target: T1, Solute carrier family 22 member 6; assay: TP_TRANSPORTER: inhibition of PAH uptake (PAH: 2 uM, Chloramphenicol: 2000 uM) in Xenopus laevis oocytes; type: functional, cell-based; conditions: oocyte
[6] = biological target: T1, Solute carrier family 22 member 6; assay: TP_TRANSPORTER: inhibition of PAH uptake (PAH: 2 uM, Cinoxacin: 2000 uM) in Xenopus laevis oocytes; type: functional, cell-based; conditions: oocyte
[7] = biological target: T1, Solute carrier family 22 member 6; assay: TP_TRANSPORTER: inhibition of PAH uptake (PAH: 2 uM, Cloxacillin: 2000 uM) in Xenopus laevis oocytes; type: functional, cell-based; conditions: oocyte
[8] = biological target: T1, Solute carrier family 22 member 6; assay: TP_TRANSPORTER: inhibition of PAH uptake (PAH: 2 uM, Nafcillin: 2000 uM) in Xenopus laevis oocytes; type: functional, cell-based; conditions: oocyte
[9] = biological target: T1, Solute carrier family 22 member 6; assay: TP_TRANSPORTER: inhibition of PAH uptake (PAH: 2 uM, Norfloxacin: 2000 uM) in Xenopus laevis oocytes; type: functional, cell-based; conditions: oocyte
[10] = biological target: T1, Solute carrier family 22 member 6; assay: TP_TRANSPORTER: inhibition of PAH uptake (PAH: 2 uM, OFLX: 2000 uM) in Xenopus laevis oocytes; type: functional, cell-based; conditions: oocyte
[11] = biological target: T1, Solute carrier family 22 member 6; assay: TP_TRANSPORTER: inhibition of PAH uptake (PAH: 2 uM, Piperacillin: 2000 uM) in Xenopus laevis oocytes; type: functional, cell-based; conditions: oocyte
[12] = biological target: T1, Solute carrier family 22 member 6; assay: TP_TRANSPORTER: inhibition of PAH uptake (PAH: 2 uM, Streptomycin: 2000 uM) in Xenopus laevis oocytes; type: functional, cell-based; conditions: oocyte
[13] = biological target: T1, Solute carrier family 22 member 6; assay: TP_TRANSPORTER: inhibition of PAH uptake (PAH: 2 uM, Vancomycin: 2000 uM) in Xenopus laevis oocytes; type: functional, cell-based; conditions: oocyte
[14] = biological target: T1, Solute carrier family 22 member 6; assay: TP_TRANSPORTER: inhibition of PAH uptake (PAH: 2 uM, Gentamicin: 2000 uM) in Xenopus laevis oocytes; type: functional, cell-based; conditions: oocyte

In the case of `CC1(C)S[C@@H]2[C@H](NC(=O)[C@H](N)c3ccc(O)cc3)C(=O)N2[C@H]1C(=O)O` [AMOXICILLIN], the Activity [1] was “inhibitor [(at a rough estimate) 20 % of control]”.
With `NC(=O)c1cc[n+](CC2=C(C(=O)O)N3C(=O)[C@@H](NC(=O)[C@@H](c4ccccc4)S(=O)(=O)[O-])[C@H]3SC2)cc1` [CEFSULODIN] the Activity [2] was “inhibitor [(at a rough estimate) 10 % of control]”.
With `CC(C)(O/N=C(\C(=O)N[C@@H]1C(=O)N2C(C(=O)[O-])=C(C[n+]3ccccc3)CS[C@H]12)c1csc(N)n1)C(=O)O` [CEFTAZIDIME] the Activity [3] was “inhibitor [(at a rough estimate) 45 % of control]”.
`CC1=C(C(=O)O)N2C(=O)[C@@H](NC(=O)[C@H](N)c3ccccc3)[C@H]2SC1` [CEPHALEXIN ANHYDROUS] was tested, and the pKi [4] was 2.64.
In the case of `O=C(N[C@H](CO)[C@H](O)c1ccc([N+](=O)[O-])cc1)C(Cl)Cl` [CHLORAMPHENICOL], the Activity [5] was “inhibitor [(at a rough estimate) 75% of control]”.
`CCn1nc(C(=O)O)c(=O)c2cc3c(cc21)OCO3` [CINOXACIN] was tested, and the Activity [6] was “inhibitor [(at a rough estimate) 5 % of control]”.
For `Cc1onc(-c2ccccc2Cl)c1C(=O)N[C@@H]1C(=O)N2[C@@H]1SC(C)(C)[C@@H]2C(=O)O` [CLOXACILLIN], the Activity [7] was “inhibitor [(at a rough estimate) 5 % of control]”.
`CCOc1ccc2ccccc2c1C(=O)N[C@@H]1C(=O)N2[C@@H]1SC(C)(C)[C@@H]2C(=O)O` [NAFCILLIN] was tested, and the Activity [8] was “inhibitor [(at a rough estimate) <5 % of control]”.
With `CCn1cc(C(=O)O)c(=O)c2cc(F)c(N3CCNCC3)cc21` [NORFLOXACIN] the Activity [9] was “is not an inhibitor [-]”.
`CC1COc2c(N3CCN(C)CC3)c(F)cc3c(=O)c(C(=O)O)cn1c23` (centres undefined) [OFLOXACIN] was tested, and the Activity [10] was “is not an inhibitor [-]”.
In the case of `CCN1CCN(C(=O)N[C@@H](C(=O)N[C@@H]2C(=O)N3[C@@H]2SC(C)(C)[C@@H]3C(=O)O)c2ccccc2)C(=O)C1=O` [PIPERACILLIN], the Activity [11] was “inhibitor [(at a rough estimate) 5 % of control]”.
For `[H]/N=C(/N)N[C@H]1[C@H](O)[C@@H](O)[C@H](O[C@@H]2O[C@@H](C)[C@](O)(C=O)[C@H]2O[C@@H]2O[C@@H](CO)[C@H](O)[C@@H](O)[C@@H]2NC)[C@@H](N/C(N)=N\[H])[C@@H]1O` [STREPTOMYCIN], the Activity [12] was “is not an inhibitor [-]”.
`CN[C@H](CC(C)C)C(=O)N[C@H]1C(=O)N[C@@H](CC(N)=O)C(=O)N[C@H]2C(=O)N[C@H]3C(=O)N[C@H](C(=O)N[C@H](C(=O)O)c4cc(O)cc(O)c4-c4cc3ccc4O)[C@H](O)c3ccc(c(Cl)c3)Oc3cc2cc(c3O[C@@H]2O[C@H](CO)[C@@H](O)[C@H](O)[C@H]2O[C@H]2C[C@](C)(N)[C@H](O)[C@H](C)O2)Oc2ccc(cc2Cl)[C@H]1O` [VANCOMYCIN] was tested, and the Activity [13] was “is not an inhibitor [-]”.
GENTAMICIN was tested, and the Activity [14] was “is not an inhibitor [-]”.
